In experiment [1] the target is T1, Ephrin type-B receptor 2 (Homo sapiens) (UniProt P29323).
T1 sequence (whole entry): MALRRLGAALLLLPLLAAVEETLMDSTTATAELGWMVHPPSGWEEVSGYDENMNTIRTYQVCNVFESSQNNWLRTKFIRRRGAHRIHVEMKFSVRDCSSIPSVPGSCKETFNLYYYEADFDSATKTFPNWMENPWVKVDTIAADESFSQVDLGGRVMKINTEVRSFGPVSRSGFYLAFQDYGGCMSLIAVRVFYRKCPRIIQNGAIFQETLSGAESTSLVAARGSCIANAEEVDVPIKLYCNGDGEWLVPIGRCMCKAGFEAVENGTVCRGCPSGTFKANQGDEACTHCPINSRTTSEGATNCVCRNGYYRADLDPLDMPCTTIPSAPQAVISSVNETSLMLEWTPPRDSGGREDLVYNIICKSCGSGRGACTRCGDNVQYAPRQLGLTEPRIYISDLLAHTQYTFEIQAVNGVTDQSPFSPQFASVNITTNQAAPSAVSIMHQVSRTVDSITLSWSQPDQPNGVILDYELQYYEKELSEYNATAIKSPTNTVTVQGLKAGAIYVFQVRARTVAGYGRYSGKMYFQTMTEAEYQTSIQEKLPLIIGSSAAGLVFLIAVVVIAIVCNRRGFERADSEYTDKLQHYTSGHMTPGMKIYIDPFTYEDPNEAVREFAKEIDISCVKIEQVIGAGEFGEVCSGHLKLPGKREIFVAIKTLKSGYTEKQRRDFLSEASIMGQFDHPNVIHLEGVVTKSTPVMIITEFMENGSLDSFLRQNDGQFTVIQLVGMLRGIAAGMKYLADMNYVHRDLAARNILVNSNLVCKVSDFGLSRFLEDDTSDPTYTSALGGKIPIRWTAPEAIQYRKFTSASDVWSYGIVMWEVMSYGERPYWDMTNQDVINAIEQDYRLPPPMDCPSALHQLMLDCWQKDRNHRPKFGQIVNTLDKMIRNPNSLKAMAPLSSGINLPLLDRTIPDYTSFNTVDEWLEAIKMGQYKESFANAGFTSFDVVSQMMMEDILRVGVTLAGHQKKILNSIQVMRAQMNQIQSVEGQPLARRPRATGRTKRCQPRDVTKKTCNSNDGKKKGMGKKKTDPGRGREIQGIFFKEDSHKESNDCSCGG
In words: Inhibition of human EPHB2 at 1.82 nM by HotSpot assay relative to control.

Experiment [2] deals with T2, Mitogen-activated protein kinase kinase kinase 3 (Homo sapiens) (UniProt Q99759).
T2 sequence (whole entry): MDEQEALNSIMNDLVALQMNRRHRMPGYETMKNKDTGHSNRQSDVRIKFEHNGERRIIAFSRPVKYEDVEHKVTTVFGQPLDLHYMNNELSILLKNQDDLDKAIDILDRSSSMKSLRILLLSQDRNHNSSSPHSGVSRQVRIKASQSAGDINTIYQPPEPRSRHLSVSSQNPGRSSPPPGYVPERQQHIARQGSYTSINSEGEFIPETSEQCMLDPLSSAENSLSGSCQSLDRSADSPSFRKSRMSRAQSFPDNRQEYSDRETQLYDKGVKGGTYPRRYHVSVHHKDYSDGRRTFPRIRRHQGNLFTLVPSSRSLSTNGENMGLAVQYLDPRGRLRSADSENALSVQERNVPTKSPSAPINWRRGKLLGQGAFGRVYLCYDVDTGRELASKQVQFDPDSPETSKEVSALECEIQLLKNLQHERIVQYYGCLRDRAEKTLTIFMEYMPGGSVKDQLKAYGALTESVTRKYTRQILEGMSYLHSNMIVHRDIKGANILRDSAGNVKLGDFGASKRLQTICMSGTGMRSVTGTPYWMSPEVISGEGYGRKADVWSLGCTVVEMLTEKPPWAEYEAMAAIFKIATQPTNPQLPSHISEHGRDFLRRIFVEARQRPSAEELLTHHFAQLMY
The experiment can be described thus: Inhibition of human MEKK3 at 1.82 nM by HotSpot assay relative to control.

Experiment [3] deals with T3, NUAK family SNF1-like kinase 2 (Homo sapiens) (UniProt Q9H093).
T3 sequence (whole entry): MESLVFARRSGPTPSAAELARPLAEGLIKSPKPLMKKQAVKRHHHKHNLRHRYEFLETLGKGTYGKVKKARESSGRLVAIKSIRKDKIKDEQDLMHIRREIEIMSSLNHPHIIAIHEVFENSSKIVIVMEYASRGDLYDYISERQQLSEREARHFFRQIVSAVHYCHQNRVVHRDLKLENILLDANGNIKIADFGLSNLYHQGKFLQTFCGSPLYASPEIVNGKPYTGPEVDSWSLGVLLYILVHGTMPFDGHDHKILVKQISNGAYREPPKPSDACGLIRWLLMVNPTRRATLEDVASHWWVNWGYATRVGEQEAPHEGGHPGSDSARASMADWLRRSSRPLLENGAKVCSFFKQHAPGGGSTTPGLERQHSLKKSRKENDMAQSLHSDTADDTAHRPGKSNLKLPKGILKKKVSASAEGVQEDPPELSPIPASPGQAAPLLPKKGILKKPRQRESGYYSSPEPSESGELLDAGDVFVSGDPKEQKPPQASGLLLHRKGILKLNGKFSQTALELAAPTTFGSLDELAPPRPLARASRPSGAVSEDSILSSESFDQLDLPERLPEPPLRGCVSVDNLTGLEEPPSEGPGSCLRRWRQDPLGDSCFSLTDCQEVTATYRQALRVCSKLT
In words: Inhibition of human NUAK2 at 1.82 nM by HotSpot assay relative to control.

The target of experiment [4] is Serine/threonine-protein kinase 16 (Homo sapiens) (UniProt O75716). The experiment can be described thus: Inhibition of human STK16 at 1.82 nM by HotSpot assay relative to control.
The target in experiment [5] is Serine/threonine-protein kinase WNK3 (Homo sapiens) (UniProt Q9BYP7). In words: Inhibition of human WNK3 at 1.82 nM by HotSpot assay relative to control.
Experiment [6] has as its target T4, Serine/threonine-protein kinase 4 (Homo sapiens) (UniProt Q13043).
T4 sequence (whole entry): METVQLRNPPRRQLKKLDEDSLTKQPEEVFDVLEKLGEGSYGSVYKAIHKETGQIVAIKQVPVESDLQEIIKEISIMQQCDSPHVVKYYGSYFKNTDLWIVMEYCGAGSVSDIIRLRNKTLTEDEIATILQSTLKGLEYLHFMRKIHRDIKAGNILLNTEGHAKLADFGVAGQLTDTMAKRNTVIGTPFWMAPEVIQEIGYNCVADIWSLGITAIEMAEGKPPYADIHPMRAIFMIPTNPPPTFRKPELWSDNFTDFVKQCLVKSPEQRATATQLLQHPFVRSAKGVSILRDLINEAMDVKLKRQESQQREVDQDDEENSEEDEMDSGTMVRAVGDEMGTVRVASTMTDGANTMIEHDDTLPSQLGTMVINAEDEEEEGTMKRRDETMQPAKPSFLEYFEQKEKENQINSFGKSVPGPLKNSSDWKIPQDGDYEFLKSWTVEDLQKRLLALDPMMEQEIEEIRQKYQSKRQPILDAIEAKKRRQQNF
The experiment can be described thus: Inhibition of human STK4 at 18.6 nM by HotSpot assay relative to control.

Sequence of Serine/threonine-protein kinase WNK3 (Homo sapiens) (Q9BYP7 whole entry): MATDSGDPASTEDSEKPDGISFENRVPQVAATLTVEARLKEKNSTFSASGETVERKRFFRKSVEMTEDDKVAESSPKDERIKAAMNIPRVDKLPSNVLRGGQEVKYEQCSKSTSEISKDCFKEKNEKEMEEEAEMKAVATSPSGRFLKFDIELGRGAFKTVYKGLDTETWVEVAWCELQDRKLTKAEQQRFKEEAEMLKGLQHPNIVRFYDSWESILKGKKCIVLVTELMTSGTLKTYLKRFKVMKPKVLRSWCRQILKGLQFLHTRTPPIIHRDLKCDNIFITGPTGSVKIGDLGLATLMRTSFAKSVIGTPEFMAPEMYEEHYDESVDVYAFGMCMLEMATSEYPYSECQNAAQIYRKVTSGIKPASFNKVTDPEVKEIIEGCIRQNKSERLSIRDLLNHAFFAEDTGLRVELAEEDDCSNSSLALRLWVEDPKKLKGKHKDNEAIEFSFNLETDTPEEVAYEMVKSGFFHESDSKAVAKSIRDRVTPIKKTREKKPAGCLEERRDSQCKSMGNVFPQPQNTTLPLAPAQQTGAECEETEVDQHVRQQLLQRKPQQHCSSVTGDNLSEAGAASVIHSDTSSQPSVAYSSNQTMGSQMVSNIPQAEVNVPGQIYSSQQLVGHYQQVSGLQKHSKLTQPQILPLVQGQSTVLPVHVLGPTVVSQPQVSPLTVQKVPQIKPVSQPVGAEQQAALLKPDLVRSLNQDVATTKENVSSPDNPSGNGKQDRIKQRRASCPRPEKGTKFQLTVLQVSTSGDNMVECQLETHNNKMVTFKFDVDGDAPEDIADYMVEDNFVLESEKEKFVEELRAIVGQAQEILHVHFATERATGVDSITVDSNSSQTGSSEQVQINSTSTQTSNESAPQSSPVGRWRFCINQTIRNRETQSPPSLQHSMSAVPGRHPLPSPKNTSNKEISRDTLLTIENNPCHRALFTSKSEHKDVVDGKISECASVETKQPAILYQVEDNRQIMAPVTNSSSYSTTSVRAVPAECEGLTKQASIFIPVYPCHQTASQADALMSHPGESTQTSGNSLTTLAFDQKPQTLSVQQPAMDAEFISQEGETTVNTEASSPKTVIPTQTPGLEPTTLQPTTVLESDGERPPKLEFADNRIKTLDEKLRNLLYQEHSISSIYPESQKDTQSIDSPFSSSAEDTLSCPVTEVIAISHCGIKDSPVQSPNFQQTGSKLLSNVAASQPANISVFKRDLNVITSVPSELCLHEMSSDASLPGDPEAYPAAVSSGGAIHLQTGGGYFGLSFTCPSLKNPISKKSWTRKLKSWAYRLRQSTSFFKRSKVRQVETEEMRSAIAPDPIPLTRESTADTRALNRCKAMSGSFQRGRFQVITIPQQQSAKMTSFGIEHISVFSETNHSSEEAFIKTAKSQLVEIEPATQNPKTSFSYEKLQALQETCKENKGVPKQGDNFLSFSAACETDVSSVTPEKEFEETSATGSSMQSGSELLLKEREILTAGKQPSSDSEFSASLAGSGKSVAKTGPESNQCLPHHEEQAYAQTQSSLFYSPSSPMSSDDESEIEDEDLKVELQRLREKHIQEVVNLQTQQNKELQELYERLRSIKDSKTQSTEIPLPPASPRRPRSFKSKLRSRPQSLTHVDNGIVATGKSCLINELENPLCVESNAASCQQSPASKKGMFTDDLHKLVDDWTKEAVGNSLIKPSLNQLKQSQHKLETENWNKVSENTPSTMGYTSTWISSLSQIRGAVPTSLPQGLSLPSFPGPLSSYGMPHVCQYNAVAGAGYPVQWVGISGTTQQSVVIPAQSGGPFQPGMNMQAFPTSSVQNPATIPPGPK
Sequence of Serine/threonine-protein kinase 16 (Homo sapiens) (O75716 whole entry): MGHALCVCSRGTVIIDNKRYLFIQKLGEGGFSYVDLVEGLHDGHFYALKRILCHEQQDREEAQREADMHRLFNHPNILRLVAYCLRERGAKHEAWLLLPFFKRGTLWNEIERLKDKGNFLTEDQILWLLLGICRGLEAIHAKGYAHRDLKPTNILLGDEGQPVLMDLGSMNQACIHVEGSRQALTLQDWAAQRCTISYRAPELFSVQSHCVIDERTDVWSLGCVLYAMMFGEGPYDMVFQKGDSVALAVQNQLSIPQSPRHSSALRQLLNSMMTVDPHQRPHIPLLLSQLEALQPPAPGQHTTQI

As to `C[C@@]1(C(=O)Nc2ccc(F)nc2)CCCN1c1nc(Nc2cc(C3CC3)n[nH]2)c2cccn2n1`, the inhibition in experiment [1] was -7.51%; in experiment [2], -2.8%; in experiment [3], 8.18%; in experiment [4], -1.36%; in experiment [5], 3.37%.
For the compound `C[C@]1(O)C[C@@H](c2nc(-c3ccc4ccc(-c5ccccc5)nc4c3)c3c(N)nccn32)C1`, the inhibition in experiment [6] stood at 6.04%.

The values above are taken from ChEMBL document CHEMBL5653615 (J Biol Chem, 2013).
